What is called Ki is a measure of affinity in units of concentration, obtained from inhibition or displacement. A higher Ki goes with weaker binding. The melting point is the temperature of the solid-liquid transition.

One data set deals with T1, human A1 receptor (Homo sapiens, UniProt P30542).
T1 sequence (P30542 1-326): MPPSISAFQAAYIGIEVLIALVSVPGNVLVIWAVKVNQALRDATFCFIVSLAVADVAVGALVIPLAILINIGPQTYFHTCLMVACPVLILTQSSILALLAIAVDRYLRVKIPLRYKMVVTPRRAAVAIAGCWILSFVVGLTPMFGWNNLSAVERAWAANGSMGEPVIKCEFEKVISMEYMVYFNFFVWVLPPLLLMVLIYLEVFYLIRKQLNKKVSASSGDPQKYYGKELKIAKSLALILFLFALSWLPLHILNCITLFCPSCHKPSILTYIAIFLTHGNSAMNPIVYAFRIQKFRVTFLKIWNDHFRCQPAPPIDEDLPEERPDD
The data set can be described thus: Adenosine antagonistic activity, radioligand binding with [3H]DPCPX. The settings on record: [3H]DPCPX 4.5 nM. The protocol:
(§1) Test 1: Adenosine Antagonistic Activity
(§2) The adenosine antagonistic activity [Ki(nM)] of the test compound was examined by radioligand binding techniques using 8-cyclopentyl-1,3-dipropylxanthine, [dipropyl-2,3-^3H(N)] ([^3H]DPCPX, 4.5 nM) for human A1 receptor and [^3H]CGS 21680 (20 nM) for human A2a receptor.

The target in the next data set is human A2a receptor (Homo sapiens, UniProt P29274). The data set can be described thus: Adenosine antagonistic activity, radioligand binding with [3H]CGS 21680. The settings on record: [3H]CGS 21680 20 nM. The protocol: as §1, §2
human A2a receptor, sequence (P29274 whole entry): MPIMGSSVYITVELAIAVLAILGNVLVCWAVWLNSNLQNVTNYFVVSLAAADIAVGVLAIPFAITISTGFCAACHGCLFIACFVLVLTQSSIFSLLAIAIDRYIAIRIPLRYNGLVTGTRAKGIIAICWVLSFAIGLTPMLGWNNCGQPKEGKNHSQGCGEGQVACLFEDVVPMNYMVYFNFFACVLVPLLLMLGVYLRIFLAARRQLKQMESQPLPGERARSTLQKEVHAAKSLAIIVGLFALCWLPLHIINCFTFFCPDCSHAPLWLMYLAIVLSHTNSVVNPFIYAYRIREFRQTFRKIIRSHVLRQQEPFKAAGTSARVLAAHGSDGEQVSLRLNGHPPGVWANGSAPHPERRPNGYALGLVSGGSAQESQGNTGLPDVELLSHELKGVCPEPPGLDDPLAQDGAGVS
The next data set deals with ddY mice. Kind of data set: Anticatalepsy activity in mouse (haloperidol-induced catalepsy). It is filed as in vivo. The following applies: 3.2 mg/kg orally, ddY mice n=7; haloperidol 0.32 mg/kg i.p. 30 min later; measured 30 min after injection. The protocol:
Test 2: Anticatalepsy Activity in Mouse [I] Test Method
The test compound (3.2 mg/kg) was administered orally with ddY mice (n=7). Then, haloperidol (0.32 mg/kg) was injected intraperitoneally 30 min. after the administration of the compound. Thirty min. after the injection, the cataleptic responses of mice were measured. The forelimbs of each mouse were placed on a 3 cm high, 3 mm wide horizontal bar, and the duration of cataleptic posture was measured for up to 30 sec.

As to `O=c1ccc(-c2c(-c3ccccc3)nn3ccncc23)c[nH]1` [Example 1, 3-(2(1H)-pyridinon-5-yl)-2-phenylpyrazolo[1,5-a]pyrazine], the melting point is > 250 °C. This compound displayed a Ki on human A1 receptor of 0.18 nM. Affinity at human A2a receptor was put at a Ki of 0.68 nM. The “Manifestation rate of catalepsy (number of mouse)” value (shortened to “Manifestation rate of catalepsy”) in the data set with ddY mice is reported as 1/7.
In turn, `CCn1cc(-c2c(-c3ccccc3F)nn3ccncc23)ccc1=O` [Example 14, 3-(1-Ethyl-2(1H)-pyridinon-5-yl)-2-(2-fluorophenyl)pyrazolo[1,5-a]pyrazine] came in with a melting point of 173 to 174 °C.
The compound `CC(C)n1cc(-c2c(-c3ccccc3F)nn3ccncc23)ccc1=O` [Example 13, 3-(1-Isopropyl-2(1H)-pyridinon-5-yl)-2-(2-fluorophenyl)pyrazolo[1,5-a]pyrazine] returned a melting point of 150 to 151 °C.
The same measure, in the same setting: the figure for `Cn1cc(-c2c(-c3ccc(F)cc3)nn3ccncc23)ccc1=O` [Example 7, 3-(1-Methyl-2(1H)-pyridinon-5-yl)-2-(4-fluorophenyl)pyrazolo[1,5-a]pyrazine] is 222 to 223 °C.
`Cn1cc(-c2c(-c3ccccc3)nn3ccncc23)ccc1=O` [Example 2, 3-(1-methyl-2(1H)-pyridinon-5-yl)-2-phenylpyrazolo[1,5-a]pyrazine] yielded a melting point of 168 to 169 °C. The compound also came in with a Ki on human A1 receptor of 0.35 nM. This compound also had a Ki at human A2a receptor of 3.28 nM. In the data set with ddY mice, the “Manifestation rate of catalepsy” value was 0/7.
`Cn1cc(-c2c(-c3ccccc3F)nn3ccncc23)ccc1=O` [Example 12, 3-(1-Methyl-2(1H)-pyridinon-5-yl)-2-(2-fluorophenyl)pyrazolo[1,5-a]pyrazine]: the melting point was 193 to 194 °C.
`CC(C)n1cc(-c2c(-c3ccccc3)nn3ccncc23)ccc1=O` [Example 3, 3-(1-Isopropyl-2(1H)-pyridinon-5-yl)-2-phenylpyrazolo[1,5-a]pyrazine] registered a melting point of 196 to 197 °C.
As to `CCn1cc(-c2c(-c3ccc(F)cc3)nn3ccncc23)ccc1=O` [Example 9, 3-(1-Ethyl-2(1H)-pyridinon-5-yl)-2-(4-fluorophenyl)pyrazolo[1,5-a]pyrazine], the melting point lay within 165 to 166 °C. Further, the Ki at human A1 receptor was determined as 0.36 nM. This compound registered a Ki on human A2a receptor of 4.44 nM. Also, the “Manifestation rate of catalepsy” value in the data set on ddY mice is listed as 0/7.
In turn, `CCn1cc(-c2c(-c3ccccc3)nn3ccncc23)ccc1=O` [Example 4, 3-(1-Ethyl-2 (1H)-pyridinon-5-yl)-2-phenylpyrazolo[1,5-a]pyrazine] showed a melting point of 192 to 193 °C.
In turn, `CCCn1cc(-c2c(-c3ccccc3)nn3ccncc23)ccc1=O` [Example 5, 3-(1-n-Propyl-2(1H)-pyridinon-5-yl)-2-phenylpyrazolo[1,5-a]pyrazine] had a melting point of 165 to 166 °C.
On the same count and under the same terms, the figure for `CC(C)n1cc(-c2c(-c3ccc(F)cc3)nn3ccncc23)ccc1=O` [Example 8, 3-(1-Isopropyl-2(1H)-pyridinon-5-yl)-2-(4-fluorophenyl)pyrazolo[1,5-a]pyrazine] is 214 to 215 °C.
On the same count and under the same terms, the figure for `CCCn1cc(-c2c(-c3ccc(F)cc3)nn3ccncc23)ccc1=O` [Example 10, 3-(1-n-Propyl-2(1H)-pyridinon-5-yl)-2-(4-fluorophenyl)pyrazolo[1,5-a]pyrazine] is 183 to 184 °C; for `CCCn1cc(-c2c(-c3ccccc3F)nn3ccncc23)ccc1=O` [Example 15, 3-(1-n-Propyl-2(1H)-pyridinon-5-yl)-2-(2-fluorophenyl)pyrazolo[1,5-a]pyrazine] it is 127 to 128 °C.

The record behind these values is patent US7030121B2, “Pyrazolopyrazine compound and pharmaceutical use thereof” (Astellas Pharma Inc., priority 2001, dated 2006).
